Assay results taken from article PMC6934184, “Selective DNA-PKcs inhibition extends the therapeutic index of localized radiotherapy and chemotherapy” (The Journal of Clinical Investigation, 2019).

Target: T1, PAK1 (Homo sapiens, UniProt Q13153)
T1 construct: purchased Thermo Fisher Scientific (Life Technologies) SelectScreen
Assay: SelectScreen Z'LYTE
Type: biochemical
How it was run: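 NU5455 was profiled across the SelectScreen Broad panel of kinase activity and binding assays. Z'LYTE reactions such as CSF1R ran at apparent Km ATP, while the Adapta CAMK1 assay used ATP listed as 10. Values are given as percent.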

T1 sequence (Q13153 whole entry): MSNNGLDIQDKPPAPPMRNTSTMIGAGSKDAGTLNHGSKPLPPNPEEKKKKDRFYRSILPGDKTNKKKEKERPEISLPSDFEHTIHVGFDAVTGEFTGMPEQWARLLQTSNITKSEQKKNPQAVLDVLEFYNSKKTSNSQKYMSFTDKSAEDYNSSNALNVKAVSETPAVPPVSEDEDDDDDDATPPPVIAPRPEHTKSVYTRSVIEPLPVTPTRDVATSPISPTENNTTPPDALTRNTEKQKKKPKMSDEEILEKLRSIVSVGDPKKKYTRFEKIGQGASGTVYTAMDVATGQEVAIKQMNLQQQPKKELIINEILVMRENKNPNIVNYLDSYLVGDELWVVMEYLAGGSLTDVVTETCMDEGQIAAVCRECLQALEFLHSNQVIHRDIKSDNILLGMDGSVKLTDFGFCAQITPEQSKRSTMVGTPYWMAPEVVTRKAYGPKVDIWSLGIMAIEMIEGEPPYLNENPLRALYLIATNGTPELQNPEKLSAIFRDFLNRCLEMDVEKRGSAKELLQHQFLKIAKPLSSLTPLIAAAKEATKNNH

Question: How did the inhibition at 1 µM turn out when CN(C(=O)CN1CCOCC1)c1ccc2sc3c(-c4cccc5c(=O)cc(N6CC7CCC(C6)O7)oc45)cccc3c2c1 [NU5455] was run?
Answer: The inhibition at 1 µM was -4.4%.
